Literature values as cited in PMC7395068, “The evolution of strategies to minimise the risk of human drug-induced liver injury (DILI) in drug discovery and development” (Archives of Toxicology, 2020).
Read-outs that look alike come from different tables or passages of the source.

Conditions: cited from earlier work
[1] = binary in vivo DILI call given beside the severity category, ref Chen 2016
[2] = human DILI concern category (LTKB DILIrank), ref Chen 2016
[3] = LTKB DILIrank category, ref Chen 2016
[4] = binary human DILI assignment, ref Chen 2016
[5] = binary DILI call, ref Chen 2016

Molecule	DILI +VE (5-8), DILI -VE (-4) [1]	DILI severity category [2]	DILI +VE (5-8), DILI -VE (-4) (in vivo)	DILI severity category (in vivo)	DILI severity category [3]	also measured
COc1cc2c(cc1OC)C1CC(=O)C(CC(C)C)CN1CC2 (stereo not shown) [tetrabenazine]	-VE	Ambiguous DILI-concern	–	–	–	–
C[C@H](O)[C@H](O)[C@H]1CNc2nc(N)[nH]c(=O)c2N1 [tetrahydrobiopterin]	-VE	vNo-DILI-Concern	–	–	–	–
O=C1CCC(N2C(=O)c3ccccc3C2=O)C(=O)N1 (stereo not shown) [thalidomide]	+VE	vLess-DILI-Concern	–	–	–	–
c1ccc2[nH]c(-c3cscn3)nc2c1 [thiabendazole]	+VE	vMost-DILI-Concern	–	–	–	–
S=P(N1CC1)(N1CC1)N1CC1 [thiotepa]	+VE	vLess-DILI-Concern	–	–	–	–
Cc1ccsc1C(=CCCN1CCC[C@@H](C(=O)O)C1)c1sccc1C [tiagabine]	-VE	Ambiguous DILI-concern	–	–	–	–
CN(C)c1cc(NC(=O)CNC(C)(C)C)c(O)c2c1C[C@H]1C[C@H]3[C@H](N(C)C)C(O)=C(C(N)=O)C(=O)[C@@]3(O)C(O)=C1C2=O [tigecycline]	-VE	Ambiguous DILI-concern	–	–	–	–
Cc1cc(Br)c(O)c2ncccc12 [tilbroquinol]	+VE	vMost-DILI-Concern	–	–	–	–
O=P(O)(O)C(Sc1ccc(Cl)cc1)P(=O)(O)O [tiludronate]	-VE	vNo-DILI-Concern	–	–	–	–
CC(C)(C)NC[C@H](O)COc1nsnc1N1CCOCC1 [timolol]	-VE	Ambiguous DILI-concern	–	–	–	–
CC(S)C(=O)NCC(=O)O (stereo not shown) [tiopronin]	-VE	Ambiguous DILI-concern	–	–	–	–
CCCCS(=O)(=O)N[C@@H](Cc1ccc(OCCCCC2CCNCC2)cc1)C(=O)O [tirofiban]	-VE	vNo-DILI-Concern	–	–	–	–
Clc1ccc2nsnc2c1NC1=NCCN1 [tizanidine]	–	–	+VE	vMost-DILI-Concern	–	–
COc1ccc2c(C(=S)N(C)CC(=O)O)cccc2c1C(F)(F)F [tolrestat]	+VE	vMost-DILI-Concern	–	–	–	–
Cc1ccccc1C(=O)Nc1ccc(C(=O)N2CCCC(O)c3cc(Cl)ccc32)c(C)c1 (stereo not shown) [tolvaptan]	+VE	vMost-DILI-Concern	–	–	–	–
CC[C@@]1(O)C(=O)OCc2c1cc1n(c2=O)Cc2cc3c(CN(C)C)c(O)ccc3nc2-1 [topotecan]	-VE	vNo-DILI-Concern	–	–	–	–
CCOC(=O)[C@H](CCc1ccccc1)N[C@@H](C)C(=O)N1[C@H](C(=O)O)C[C@H]2CCCC[C@@H]21 [trandolapril]	+VE	vLess-DILI-Concern	–	–	–	–
CC(=O)Oc1ccc(C2(c3ccc(OC(C)=O)cc3)C(=O)N(C(C)=O)c3ccccc32)cc1 [triacetyldiphenolisatin]	+VE	vMost-DILI-Concern	–	–	–	–
Nc1nc(N)c2nc(-c3ccccc3)c(N)nc2n1 [triamterene]	+VE	vLess-DILI-Concern	–	–	–	–
Cc1nnc2n1-c1ccc(Cl)cc1C(c1ccccc1Cl)=NC2 [triazolam]	–	–	-VE	Ambiguous DILI-concern	–	–
Cl.Cl.NCCNCCNCCN [trientine hydrochloride]	–	–	-VE	vNo-DILI-Concern	–	–
COc1cc(C(=O)NCc2ccc(OCCN(C)C)cc2)cc(OC)c1OC [trimethobenzamide]	-VE	Ambiguous DILI-concern	–	–	–	–

Molecule	DILI +VE (5-8), DILI -VE (-4) [1]	DILI severity category [2]	DILI +VE (5-8), DILI -VE (-4) (in vivo)	DILI severity category (in vivo)	DILI severity category [3]	also measured
COc1cc(NCc2ccc3nc(N)nc(N)c3c2C)cc(OC)c1OC [trimetrexate]	-VE	Ambiguous DILI-concern	–	–	–	–
CC(CN(C)C)CN1c2ccccc2CCc2ccccc21 (stereo not shown) [trimipramine]	-VE	Ambiguous DILI-concern	–	–	–	–
NC(CO)(CO)CO [tromethamine]	–	–	–	–	Ambiguous DILI-concern	DILI +VE (5-8), DILI -VE (-4) [4]: -VE
O=C(O[C@H]1C[C@H]2CC[C@@H](C1)[N+]21CCCC1)C(O)(c1ccccc1)c1ccccc1 [trospium]	–	–	–	–	vNo-DILI-Concern	DILI +VE (5-8), DILI -VE (-4) [4]: -VE
NCCc1ccc(O)cc1 [tyramine]	–	–	–	–	vNo-DILI-Concern	DILI +VE (5-8), DILI -VE (-4) [4]: -VE
CC(C)[C@H](N)C(=O)OCCOCn1cnc2c(=O)[nH]c(N)nc21 [valaciclovir]	–	–	–	–	vLess-DILI-Concern	DILI +VE (5-8), DILI -VE (-4) [4]: +VE
Cc1onc(-c2ccccc2)c1-c1ccc(S(N)(=O)=O)cc1 [valdecoxib]	–	–	–	–	vLess-DILI-Concern	DILI +VE (5-8), DILI -VE (-4) [4]: +VE
CC(C)[C@H](N)C(=O)OCC(CO)OCn1cnc2c(=O)nc(N)[nH]c21 (stereo partly shown) [valganciclovir]	–	–	–	–	Ambiguous DILI-concern	DILI +VE (5-8), DILI -VE (-4) [4]: -VE
c1cnc2cc3c(cc2n1)[C@@H]1CNC[C@H]3C1 [varenicline]	–	–	–	–	vLess-DILI-Concern	DILI +VE (5-8), DILI -VE (-4) [4]: +VE
CC(=O)O[C@H]1C[C@@H]2CC[C@@H]3[C@H](CC[C@@]4(C)[C@H]3C[C@H]([N+]3(C)CCCCC3)[C@@H]4OC(C)=O)[C@@]2(C)C[C@@H]1N1CCCCC1 [vecuronium]	–	–	–	–	vNo-DILI-Concern	DILI +VE (5-8), DILI -VE (-4) [4]: -VE
C=CC(N)CCC(=O)O (stereo not shown) [vigabatrin]	–	–	–	–	Ambiguous DILI-concern	DILI +VE (5-8), DILI -VE (-4) [4]: -VE
CC[C@]1(O)C[C@H]2CN(CCc3c([nH]c4ccccc34)[C@@](C(=O)OC)(c3cc4c(cc3OC)N(C=O)[C@H]3[C@@](O)(C(=O)OC)[C@H](OC(C)=O)[C@]5(CC)C=CCN6CC[C@]43[C@@H]65)C2)C1 [vincristine]	–	–	–	–	vLess-DILI-Concern	DILI +VE (5-8), DILI -VE (-4) [4]: +VE
CCC1=C[C@@H]2CN(C1)Cc1c([nH]c3ccccc13)[C@@](C(=O)OC)(c1cc3c(cc1OC)N(C)[C@H]1[C@@](O)(C(=O)OC)[C@H](OC(C)=O)[C@]4(CC)C=CCN5CC[C@]31[C@@H]54)C2 [vinorelbine]	–	–	–	–	Ambiguous DILI-concern	DILI +VE (5-8), DILI -VE (-4) [4]: -VE
CC1=C(/C=C/C(C)=C/C=C/C(C)=C/CO)C(C)(C)CCC1 [vitamin a]	–	–	–	–	vLess-DILI-Concern	DILI +VE (5-8), DILI -VE (-4) [4]: +VE
O=C1O[C@H]([C@@H](O)CO)C(O)=C1O [vitamin c]	–	–	–	–	vNo-DILI-Concern	DILI +VE (5-8), DILI -VE (-4) [4]: -VE
O=C(CCCCCCC(=O)Nc1ccccc1)NO [vorinostat]	–	–	–	–	vNo-DILI-Concern	DILI +VE (5-8), DILI -VE (-4) [4]: -VE
CCOC(Nc1ccc(C(=O)O)cc1)C(=O)c1ccc(-c2ccccc2)cc1 (stereo not shown) [xenazoic acid]	–	–	–	–	vMost-DILI-Concern	DILI +VE (5-8), DILI -VE (-4) [4]: +VE
O=C1Cc2cc(CCN3CCN(c4nsc5ccccc45)CC3)c(Cl)cc2N1 [ziprasidone]	–	–	–	–	vLess-DILI-Concern	DILI +VE (5-8), DILI -VE (-4) [4]: +VE
O=P(O)(O)C(O)(Cn1ccnc1)P(=O)(O)O [zoledronate]	–	–	–	–	vLess-DILI-Concern	DILI +VE (5-8), DILI -VE (-4) [4]: +VE
CN(C)CCc1c[nH]c2ccc(C[C@H]3COC(=O)N3)cc12 [zolmitriptan]	–	–	–	–	Ambiguous DILI-concern	DILI +VE (5-8), DILI -VE (-4) [4]: -VE
Argipressin	–	–	–	–	vNo-DILI-Concern	DILI +VE (5-8), DILI -VE (-4) [5]: -VE
Sodium polystyrene sulfonate	–	–	-VE	vNo-DILI-Concern	–	–

Molecule	DILI +VE (5-8), DILI -VE (-4) [1]	DILI severity category [2]	DILI +VE (5-8), DILI -VE (-4) (in vivo)	DILI severity category (in vivo)	DILI severity category [3]	also measured
abatacept	–	–	+VE	vLess-DILI-Concern	–	–
abciximab	–	–	-VE	vNo-DILI-Concern	–	–
adalimumab	–	–	+VE	vLess-DILI-Concern	–	–
agalsidase beta	–	–	-VE	vNo-DILI-Concern	–	–
aldesleukin	–	–	-VE	Ambiguous DILI-concern	–	–
alemtuzumab	–	–	-VE	vNo-DILI-Concern	–	–
alglucosidase alfa	–	–	-VE	vNo-DILI-Concern	–	–
alteplase	–	–	-VE	vNo-DILI-Concern	–	–
anakinra	–	–	+VE	vLess-DILI-Concern	–	–
aprotinin	–	–	–	–	Ambiguous DILI-concern	DILI +VE (5-8), DILI -VE (-4) [5]: -VE
asparaginase	–	–	+VE	vMost-DILI-Concern	–	–
basiliximab	–	–	-VE	vNo-DILI-Concern	–	–
bevacizumab	–	–	-VE	vNo-DILI-Concern	–	–
bivalirudin	–	–	–	–	vNo-DILI-Concern	DILI +VE (5-8), DILI -VE (-4) [5]: -VE
bleomycin	–	–	–	–	Ambiguous DILI-concern	DILI +VE (5-8), DILI -VE (-4) [5]: -VE
botulinum toxin type a	–	–	-VE	vNo-DILI-Concern	–	–
canakinumab	–	–	+VE	vLess-DILI-Concern	–	–
certolizumab pegol	–	–	-VE	Ambiguous DILI-concern	–	–
cholestyramine	–	–	-VE	Ambiguous DILI-concern	–	–
colestipol	–	–	-VE	Ambiguous DILI-concern	–	–
colistimethate	–	–	-VE	vNo-DILI-Concern	–	–
